Measured values reported in patent US20230092389A1, “UNIT DOSES, AEROSOLS, KITS, AND METHODS FOR TREATING HEART CONDITIONS BY PULMONARY ADMINISTRATION” (InCarda Therapeutics, Inc., priority 2017, published 2023).
Like-named read-outs stand apart in the source and are kept apart here.

What was measured:
[1] = system: dogs with induced supraventricular tachycardia; assay: Induced supraventricular tachycardia (SVT) model, IT vs IV, anesthetized dogs (Example 2); format: in vivo, dog; settings: for cardiovascular effect when given by intratracheal instillation: summary of Example 2
Description: Supraventricular Tachycardia Model:
A venous catheter was placed in a peripheral vessel (i.e., cephalic) for administration of anesthetic(s). For anesthesia induction, all animals were given a combination of diazepam (˜0.5 mg/kg) and ketamine (˜10 mg/kg) intravenously through this venous catheter. Anesthesia was sustained until completion of the study with an intravenous infusion of pentobarbital (5-15 mg/kg/hr). Following induction, animals were endotracheally intubated and mechanically ventilated (˜12 breaths/min with a tidal volume of 200-300 mL).
Subsequently, a cut-down on a jugular vein permitted the introduction of a pacing lead into the right atrium. Similarly, for arterial pressure monitoring, a solid-state micromanometer catheter (Millar Instruments) was advanced into the aortic root via a cut-down over an artery (e.g., femoral, carotid). Transthoracic electrodes forming ECG lead II was placed. For vehicle/test article delivery, a 4F catheter was introduced through the trachea and wedged into a small airway, and a venous catheter was placed in a peripheral vessel (i.e., cephalic).
Following instrumentation/hemodynamic stabilization (for at least 15 minutes), right atrial pacing (5-10 V, 40 Hz, 2 ms pulses) was established in order to induce supraventricular tachycardia (SVT); pacing and SVT was sustained throughout the duration of the experiments. Approximately 5 minutes after onset of SVT and while monitoring ECG/arterial pressure continuously, the animals were administered three escalating doses (one at a time) of a test article; each dose was delivered as a bolus (˜3 mL) directly into a small airway through the intratracheal catheter (IT). Following dosing, the heart-rate (HR) and arterial pressure response were monitored for 15 minutes.
Subsequently (once the response to three IT doses had been recorded), hemodynamic recovery was allowed for approximately 30 minutes, and the electrocardiographic/hemodynamic response to the highest test-article dose was re-evaluated; however, for comparison purposes, this dose was delivered intravenously (IV).
Overall, two groups/test-articles were studied, and up to two animals were assigned to each group (n=2/group): one group received esmolol HCL (0.5-1.0 mg/kg, ESM), while the other received adenosine (0.25-1.0 mg/kg, ADN); only one test article was administered to per animal.

[2] = system: dogs with induced atrial fibrillation; format: in vivo, dog; settings: for conversion of induced atrial fibrillation to normal sinus rhythm: pulmonary dose 0.25 mg/kg body weight; for cardiovascular effect when given by intratracheal instillation: summary of Example 2
Description: Atrial Fibrillation Model: A venous catheter was placed in a peripheral vessel (i.e., cephalic) for administration of anesthetic. […] Following induction, animals were endotracheally intubated and mechanically ventilated (˜12 breaths/minute with a tidal volume of 200-300 mL). Subsequently, a cut-down on a jugular vein permitted introduction of a pacing lead into the right atrium. Transthoracic electrodes forming ECG lead II were placed. For test/vehicle article delivery, a 4F catheter was introduced through the trachea and wedged into a small airway, and a venous catheter was placed in a peripheral vessel (i.e., cephalic). […] Approximately 5 min after administration of this parasympathomimetic was started; the following experiments were performed: […] Observations were made for up to 10 minutes. […] Vehicle was only water.

physchem = settings: water

## Nc1ncnc2c1ncn2[C@@H]1O[C@H](CO)[C@@H](O)[C@H]1O [adenosine]
[1]; administered via the lung
  effect on the heart: did not have any effect on the heart
[1]
  cardiovascular effect when given by intratracheal instillation: clear response was not observed

## COc1ccc([C@@H]2Sc3ccccc3N(CCN(C)C)C(=O)[C@@H]2OC(C)=O)cc1 [diltiazem]
[2]; dog, in vivo, 0.25 mg/kg
  mean arterial blood pressure (MAP): notable drop
[2]; pulmonary dose 0.25 mg/kg
  PQ interval: prolonged the PQ interval
  heart rate: slowed down but marginally
[2]; 0.25 mg/kg
  conversion of induced atrial fibrillation to normal sinus rhythm: converted the induced atrial fibrillation to normal sinus rhythm
[2]; listed as diltiazem HCl, 0.25 mg/kg
  conversion of induced atrial fibrillation to normal sinus rhythm: Afib converting after administration
[2]
  cardiovascular effect when given by intratracheal instillation: clear cardiovascular effect
[1]; 0.25 mg/kg (FIGS. 14, 15)
  comparison of pulmonary and IV routes: comparable in all aspects
[1]; IV or pulmonary, 0.25 mg/kg
  PR interval: prolonged the PR interval
[1]; IV vs pulmonary
  timing of the electrophysiological change: comparable between IV and pulmonary
[1]; dog, in vivo, iv, 0.25 mg/kg
  Mean Arterial Pressure (MAP): dropped significantly in both cases
3.5 mg/mL solution
  pH of solution in water: 6.7
Diltiazem hydrochloride 50 mg/ml, flecainide acetate 30 mg/ml in distilled water
  appearance of solution: clear with no visible particulate matter
physchem
  solubility: > 90 mg/mL

## CN(CCOc1ccc(NS(C)(=O)=O)cc1)CCc1ccc(NS(C)(=O)=O)cc1 [dofetilide]
[2]; escalating pulmonary doses of 10-40 mcg/kg body weight
  heart rate: minor reduction in heart rate
[2]; pulmonary (IT) administration
  effect on induced atrial fibrillation: marginally slowed the ventricular rate
[2]
  cardiovascular effect when given by intratracheal instillation: probable effect

## COC(=O)CCc1ccc(OCC(O)CNC(C)C)cc1 (stereo not shown) [esmolol]
[1]; 0.5 mg/kg via the lung (FIGS. 17, 18)
  AV block: period of AV block induced
[1]; 0.75 mg/kg via the lung (FIG. 20)
  AV block: period of AV block induced
[1]; elevating doses, IT
  PR intervals in the ECG traces: prolonging the PR intervals
[1]; higher dose 1.0 mg/kg
  electrophysiological effects: did not produce the same electrophysiological effects
[1]; lower doses, via the lung (IT)
  AV block: 2nd degree AV block
[1]
  cardiovascular effect when given by intratracheal instillation: probable effect
[1]; via the lung, any of the doses
  drop in MAP: did not cause a drop in MAP
